Patent publication US8791107B2, “N-substituted oxazinopteridines and oxazinopteridinones” (Takeda Pharmaceutical Company Limited, priority 2011, dated 2014)

biological target: T1, PI3Kδ (Homo sapiens, UniProt O00329); assay: PI3Kδ inhibition, modified PIK3CD Adapta TR-FRET assay; assay type: biochemical; conditions: recombinant GST-tagged full length PIK3CD co-expressed with PIK3R1 (p85α); 2 μM ATP, 50 μM PIP2; read-out: PI3Kδ Inhibition (pIC50) (converted)
T1 construct: The protein is full length and co-expressed with untagged PIK3R1; GST; purchased Invitrogen PV5274
T1 sequence (O00329 whole entry): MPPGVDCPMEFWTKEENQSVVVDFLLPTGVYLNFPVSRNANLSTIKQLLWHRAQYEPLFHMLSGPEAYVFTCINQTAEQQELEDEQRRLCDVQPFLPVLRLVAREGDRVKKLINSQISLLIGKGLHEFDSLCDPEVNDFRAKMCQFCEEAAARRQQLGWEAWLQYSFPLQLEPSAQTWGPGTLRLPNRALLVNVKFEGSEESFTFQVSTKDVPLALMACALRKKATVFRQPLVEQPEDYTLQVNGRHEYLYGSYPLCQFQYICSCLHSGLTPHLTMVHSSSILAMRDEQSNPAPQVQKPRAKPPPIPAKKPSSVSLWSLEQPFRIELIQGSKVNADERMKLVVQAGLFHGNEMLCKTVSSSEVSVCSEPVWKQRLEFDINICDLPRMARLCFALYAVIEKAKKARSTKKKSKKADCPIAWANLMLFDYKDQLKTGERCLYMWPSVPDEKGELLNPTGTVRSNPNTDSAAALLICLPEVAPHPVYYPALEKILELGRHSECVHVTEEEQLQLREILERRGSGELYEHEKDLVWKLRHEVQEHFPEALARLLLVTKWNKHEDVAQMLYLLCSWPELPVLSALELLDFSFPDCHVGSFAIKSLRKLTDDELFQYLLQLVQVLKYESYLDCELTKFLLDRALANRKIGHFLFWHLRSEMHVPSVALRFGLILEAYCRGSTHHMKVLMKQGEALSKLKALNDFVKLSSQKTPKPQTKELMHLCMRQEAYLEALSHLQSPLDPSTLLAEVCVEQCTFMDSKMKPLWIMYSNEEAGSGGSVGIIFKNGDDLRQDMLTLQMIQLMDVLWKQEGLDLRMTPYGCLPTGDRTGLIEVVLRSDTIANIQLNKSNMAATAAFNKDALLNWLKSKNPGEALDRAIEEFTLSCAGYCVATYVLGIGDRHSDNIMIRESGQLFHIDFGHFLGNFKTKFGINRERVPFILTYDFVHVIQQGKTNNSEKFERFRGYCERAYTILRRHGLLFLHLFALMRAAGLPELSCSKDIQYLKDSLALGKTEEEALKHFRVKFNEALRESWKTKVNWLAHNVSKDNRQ
T1 sequence (P27986 whole entry partner): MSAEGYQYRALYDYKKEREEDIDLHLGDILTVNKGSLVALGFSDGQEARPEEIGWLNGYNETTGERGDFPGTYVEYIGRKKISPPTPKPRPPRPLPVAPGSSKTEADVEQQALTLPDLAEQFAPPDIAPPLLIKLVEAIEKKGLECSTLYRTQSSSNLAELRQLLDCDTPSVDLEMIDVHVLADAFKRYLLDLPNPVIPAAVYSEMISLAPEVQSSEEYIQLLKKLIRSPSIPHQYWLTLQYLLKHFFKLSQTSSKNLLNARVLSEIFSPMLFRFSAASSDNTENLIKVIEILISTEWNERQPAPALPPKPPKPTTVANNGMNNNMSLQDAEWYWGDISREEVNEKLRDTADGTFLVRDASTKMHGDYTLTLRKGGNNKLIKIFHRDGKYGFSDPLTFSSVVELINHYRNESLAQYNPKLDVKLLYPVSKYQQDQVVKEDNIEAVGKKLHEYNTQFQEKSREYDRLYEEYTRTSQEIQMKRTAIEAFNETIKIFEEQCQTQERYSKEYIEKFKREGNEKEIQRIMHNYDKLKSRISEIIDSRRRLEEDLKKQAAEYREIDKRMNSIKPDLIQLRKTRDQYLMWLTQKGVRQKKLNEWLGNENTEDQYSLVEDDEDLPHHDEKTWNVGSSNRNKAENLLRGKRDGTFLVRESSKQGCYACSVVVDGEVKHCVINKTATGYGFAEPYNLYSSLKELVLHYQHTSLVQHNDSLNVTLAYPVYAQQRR
In short: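 Full-length GST-PIK3CD co-expressed with p85α was run in 50 mM HEPES pH 7.5, 3 mM MgCl2, 1 mM EGTA, 100 mM NaCl, 0.03% CHAPS, 2 mM DTT, 1% DMSO, with 12-point compound titrations. Reactions at room temperature were started with solution containing 2 μM ATP and 50 μM PIP2. ADP was detected by Adapta TR-FRET (620 nm-ratioed).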

| SMILES | IC50 [nM] |
| --- | --- |
| O=C(CN1C[C@@H]2COCCN2c2nc(-c3cccc4[nH]ccc34)ncc21)Nc1ccncc1 [Example 203, (R)-2-(2-(1H-indol-4-yl)-6a,7,9,10-tetrahydro-[1,4]oxazino[3,4-h]pteridin-5(6H)-yl)-N-(pyridin-4-yl)acetamide] | 398 |
| CCOC(=O)c1cccc(N2C[C@@H]3COCCN3c3nc(-c4cccc5[nH]ccc45)ncc32)c1 [Example 190, (R)-ethyl 3-(2-(1H-indol-4-yl)-6a,7,9,10-tetrahydro-[1,4]oxazino[3,4-h]pteridin-5(6H)-yl)benzoate] | 25.1 |
| CC(=O)Nc1ccc(-c2ncc3c(n2)N2CCOC[C@H]2CN3CC(=O)NCC2CCOCC2)cc1 [Example 224, (R)-2-(2-(4-acetamidophenyl)-6a,7,9,10-tetrahydro-[1,4]oxazino[3,4-h]pteridin-5(6H)-yl)-N-((tetrahydro-2H-pyran-4-yl)methyl)acetamide] | 316 |
| O=C(CN1C[C@@H]2COCCN2c2nc(-c3ccc(F)c(CO)c3)ncc21)NCC1CCOCC1 [Example 220, (R)-2-(2-(4-fluoro-3-(hydroxymethyl)phenyl)-6a,7,9,10-tetrahydro-[1,4]oxazino[3,4-h]pteridin-5(6H)-yl)-N-((tetrahydro-2H-pyran-4-yl)methyl)acetamide] | 251 |
| COC(=O)c1ccc(C)cc1CN1C[C@@H]2COCCN2c2nc(-c3cccc4[nH]ccc34)ncc21 [Example 165, (R)-methyl 2-((2-(1H-indol-4-yl)-6a,7,9,10-tetrahydro-[1,4]oxazino[3,4-h]pteridin-5(6H)-yl)methyl)-4-methylbenzoate] | 794 |
| CS(=O)(=O)c1ccc(CN2C(=O)C3COCCN3c3nc(-c4ccc5cn[nH]c5c4)ncc32)cc1 (stereo not drawn) [Example 124, 2-(1H-indazol-6-yl)-5-(4-(methylsulfonyl)benzyl)-6a,7,9,10-tetrahydro-[1,4]oxazino[3,4-h]pteridin-6(5H)-one] | 3980 |
| COc1cccc2c(-c3ncc4c(n3)N3CCOCC3CN4)c[nH]c12 (stereo not drawn) [Example 9, 2-(7-methoxy-1H-indol-3-yl)-5,6,6a,7,9,10-hexahydro-[1,4]oxazino[3,4-h]pteridine] | > 10000 |
| CS(=O)(=O)c1ccc(CN2C(=O)C3COCCN3c3nc(-c4cnc5[nH]ccc5c4)ncc32)cc1 (stereo not drawn) [Example 108, 5-(4-(methylsulfonyl)benzyl)-2-(1H-pyrrolo[2,3-b]pyridin-5-yl)-6a,7,9,10-tetrahydro-[1,4]oxazino[3,4-h]pteridin-6(5H)-one] | 31.6 |
| CS(=O)(=O)c1ccc(CN2C(=O)C3COCCN3c3nc(-c4cc(N)ccn4)ncc32)cc1 (stereo not drawn) [Example 141, 2-(4-aminopyridin-2-yl)-5-(4-(methylsulfonyl)benzyl)-6a,7,9,10-tetrahydro-[1,4]oxazino[3,4-h]pteridin-6(5H)-one] | > 10000 |
| CNC(=O)Nc1ccc(-c2ncc3c(n2)N2CCOCC2C(=O)N3[C@@H](C)c2ccc(Cl)cc2)cc1 (single isomer, unassigned) [Example 161] | 3.98 |
| c1cc(-c2ncc3c(n2)N2CCOC[C@H]2CN3C2CCOCC2)c2cc[nH]c2c1 [Example 192, (R)-2-(1H-indol-4-yl)-5-(tetrahydro-2H-pyran-4-yl)-5,6,6a,7,9,10-hexahydro-[1,4]oxazino[3,4-h]pteridine] | 3.16 |
| c1csc(-c2nnc(CN3CC4COCCN4c4nc(-c5cccc6[nH]ccc56)ncc43)o2)c1 (stereo not drawn) [Example 33, 2-(1H-indol-4-yl)-5-((5-(thiophen-2-yl)-1,3,4-oxadiazol-2-yl)methyl)-5,6,6a,7,9,10-hexahydro-[1,4]oxazino[3,4-h]pteridine] | 12.6 |
| O=C(CN1C[C@@H]2COCCN2c2nc(-c3ccc(CO)s3)ncc21)NCC1CCOCC1 [Example 226, (R)-2-(2-(5-(hydroxymethyl)thiophen-2-yl)-6a,7,9,10-tetrahydro-[1,4]oxazino[3,4-h]pteridin-5(6H)-yl)-N-((tetrahydro-2H-pyran-4-yl)methyl)acetamide] | 501 |
| CS(=O)(=O)c1ccc(CN2C(=O)C3COCCN3c3nc(-c4ccc(C(N)=O)cc4)ncc32)cc1 (stereo not drawn) [Example 107, 4-(5-(4-(methylsulfonyl)benzyl)-6-oxo-5,6,6a,7,9,10-hexahydro-[1,4]oxazino[3,4-h]pteridin-2-yl)benzamide] | 398 |
| C[C@@H](c1ccc(Cl)cc1)N1C(=O)C2COCCN2c2nc(-c3cnc(N)nc3)ncc21 (mixture of isomers) [Example 162] | 6.31 |
| CCc1nnc(CN2C[C@@H]3COCCN3c3nc(-c4cc(CO)ccc4F)ncc32)o1 [Example 179, (R)-(3-(5-((5-ethyl-1,3,4-oxadiazol-2-yl)methyl)-5,6,6a,7,9,10-hexahydro-[1,4]oxazino[3,4-h]pteridin-2-yl)-4-fluorophenyl)methanol] | 50.1 |
| C[C@@H](c1ccc(Cl)cc1)N1C(=O)C2COCCN2c2nc(-c3cccc4[nH]ccc34)ncc21 (mixture of isomers) [Example 163, 5-((S)-1-(4-chlorophenyl)ethyl)-2-(1H-indol-4-yl)-6a,7,9,10-tetrahydro-[1,4]oxazino[3,4-h]pteridin-6(5H)-one] | 31.6 |

| SMILES | IC50 [nM] |
| --- | --- |
| c1ccc(N2CC3COCCN3c3nc(-c4cccc5[nH]ccc45)ncc32)cc1 (stereo not drawn) [Example 181, 2-(1H-indol-4-yl)-5-phenyl-5,6,6a,7,9,10-hexahydro-[1,4]oxazino[3,4-h]pteridine] | 79.4 |
| O=C1C2COCCN2c2nc(-c3cn[nH]c3)ncc2N1[C@H]1CCc2ccccc21 (stereo partly drawn) [Example 96, 5-((S)-2,3-dihydro-1H-inden-1-yl)-2-(1H-pyrazol-4-yl)-6a,7,9,10-tetrahydro-[1,4]oxazino[3,4-h]pteridin-6(5H)-one] | 631 |
| COc1cc(-c2ncc3c(n2)N2CCOCC2CN3)ccn1 (stereo not drawn) [Example 14, 2-(2-methoxypyridin-4-yl)-5,6,6a,7,9,10-hexahydro-[1,4]oxazino[3,4-h]pteridine] | 5010 |
| OCCN1C[C@@H]2COCCN2c2nc(-c3cccc4[nH]ccc34)ncc21 [Example 173, (R)-2-(2-(1H-indol-4-yl)-6a,7,9,10-tetrahydro-[1,4]oxazino[3,4-h]pteridin-5(6H)-yl)ethanol] | 158 |
| CS(=O)(=O)c1ccc(CN2C(=O)C3COCCN3c3nc(-c4cccc(-c5cc[nH]n5)c4)ncc32)cc1 (stereo not drawn) [Example 110, 2-(3-(1H-pyrazol-3-yl)phenyl)-5-(4-(methylsulfonyl)benzyl)-6a,7,9,10-tetrahydro-[1,4]oxazino[3,4-h]pteridin-6(5H)-one] | 3160 |
| CC(C)(O)CCN1C[C@@H]2COCCN2c2nc(-c3cncc4[nH]ccc34)ncc21 [Example 170, (R)-4-(2-(1H-pyrrolo[2,3-c]pyridin-4-yl)-6a,7,9,10-tetrahydro-[1,4]oxazino[3,4-h]pteridin-5(6H)-yl)-2-methylbutan-2-ol] | 6.31 |
| O=C(O)CN1C[C@@H]2COCCN2c2nc(-c3cccc4[nH]ccc34)ncc21 [Example 69, (R)-2-(2-(1H-indol-4-yl)-6a,7,9,10-tetrahydro-[1,4]oxazino[3,4-h]pteridin-5(6H)-yl)acetic acid] | 2510 |
| O=C(CN1C[C@@H]2COCCN2c2nc(-c3cccc(CO)c3)ncc21)NCC1CCOCC1 [Example 82, (R)-2-(2-(3-(hydroxymethyl)phenyl)-6a,7,9,10-tetrahydro-[1,4]oxazino[3,4-h]pteridin-5(6H)-yl)-N-((tetrahydro-2H-pyran-4-yl)methyl)acetamide] | 12.6 |
| CNC(=O)c1cccc(-c2ncc3c(n2)N2CCOCC2C(=O)N3Cc2ccc(S(C)(=O)=O)cc2)c1 (stereo not drawn) [Example 122, N-methyl-3-(5-(4-(methylsulfonyl)benzyl)-6-oxo-5,6,6a,7,9,10-hexahydro-[1,4]oxazino[3,4-h]pteridin-2-yl)benzamide] | 1000 |
| N#Cc1cccc(-c2ncc3c(n2)N2CCOC[C@H]2CN3CC(=O)NCC2CCOCC2)c1 [Example 218, (R)-2-(2-(3-cyanophenyl)-6a,7,9,10-tetrahydro-[1,4]oxazino[3,4-h]pteridin-5(6H)-yl)-N-((tetrahydro-2H-pyran-4-yl)methyl)acetamide] | 1260 |
| CCc1nnc(CN2C[C@@H]3COCCN3c3nc(-c4cncc5[nH]ccc45)ncc32)o1 [Example 167, (R)-5-((5-ethyl-1,3,4-oxadiazol-2-yl)methyl)-2-(1H-pyrrolo[2,3-c]pyridin-4-yl)-5,6,6a,7,9,10-hexahydro-[1,4]oxazino[3,4-h]pteridine] | 1000 |
| N#Cc1ccc(F)cc1CN1CC2COCCN2c2nc(-c3cccc4[nH]ccc34)ncc21 (stereo not drawn) [Example 46, 2-((2-(1H-indol-4-yl)-6a,7,9,10-tetrahydro-[1,4]oxazino[3,4-h]pteridin-5(6H)-yl)methyl)-4-fluorobenzonitrile] | 316 |
| CNC(=O)Nc1ccc(-c2ncc3c(n2)N2CCOCC2C(=O)N3C2CCc3ccc(Cl)cc32)cc1 (stereo not drawn) [Example 147, 1-(4-(5-(6-chloro-2,3-dihydro-1H-inden-1-yl)-6-oxo-5,6,6a,7,9,10-hexahydro-[1,4]oxazino[3,4-h]pteridin-2-yl)phenyl)-3-methylurea] | 20 |
| CC(=O)N1CC2COCCN2c2nc(-n3c(C(F)F)nc4ccccc43)ncc21 (stereo not drawn) [Example 55, 1-(2-(2-(difluoromethyl)-1H-benzo[c]imidazol-1-yl)-6a,7,9,10-tetrahydro-[1,4]oxazino[3,4-h]pteridin-5(6H)-yl)ethanone] | 631 |
| c1cc(-c2ncc3c(n2)N2CCOCC2CN3CC2CC2)c2cc[nH]c2c1 (stereo not drawn) [Example 3, 5-(cyclopropylmethyl)-2-(1H-indol-4-yl)-5,6,6a,7,9,10-hexahydro-[1,4]oxazino[3,4-h]pteridine] | 5.01 |
| COc1ccc(CC(=O)N2CC3COCCN3c3nc(-c4cccc5[nH]ccc45)ncc32)cc1 (stereo not drawn) [Example 20, 1-(2-(1H-indol-4-yl)-6a,7,9,10-tetrahydro-[1,4]oxazino[3,4-h]pteridin-5(6H)-yl)-2-(4-methoxyphenyl)ethanone] | 501 |
